# Measured values from patent publication US4749700A, “Novel methods of administering antihistamines, antinausea and antiemetic pharmaceutical agents and novel dosage forms containing same” (priority 1987, dated 1988).
# Where a name gives a salt, the structure may show the parent alone. Read-outs that look alike come from different tables or passages of the source.
# Key:
# [1] = test system: nasal polyps; conditions: cited from earlier work
# [2] = test system: nausea and vomiting; experiment: Intranasal metoclopramide for control of nausea and vomiting in cancer patients; type: in vivo, human; conditions: intranasal 40 mg every four hours
# Experimental: The patient was a person with Stage IV ovarian cancer.
# Because of repeated nausea and vomiting due to bowel obstruction and other factors, intranasal metoclopramide at 40 mg per dose every four hours was employed for control of symptoms.
# [3] = test system: dogs; conditions: cited from earlier work
# [4] = test system: cats; conditions: same or larger amounts into the sinus; cited from earlier work
# [5] = 4-way crossover study of metoclopramide hydrochloride (nasal, oral, intramuscular) in volunteer human subjects; type: in vivo; conditions: for Tmax: human, in vivo, Time to Peak
# Experimental: A 4-way crossover study was conducted in eight volunteer human subjects to compare the effects of the nasal administration of 5 and 10 mg of metoclopramide hydrochloride in a gel formulation, 10 mg of the same agent in an oral formulation and 5 mg of the product intramuscularly. The nasal formulation had the following composition: […]
# ______________________________________
# BENZYL ALCOHOL N.F. 1.500 ml
# SODIUM CHLORIDE U.S.P. 0.800 grams
# ACETIC ACID, N.F. 0.320 grams
# SODIUM ACETATE U.S.P. 0.077 grams
# SORBITOL SOLUTION U.S.P.
# METOCLOPRAMIDE HCL 5.000 grams
# WATER PURIFIED U.S.P. q.s.
# The oral and intramuscular compositions were commercial formulations available from A.G. Robbins Pharmaceutical Company, Richmond, Va., under the name Reglan.
# The study was extended to dosage levels of 20 mg and 40 mg by the intranasal route using the same compositions.
# [6] = in vivo; design: species or system Sprague-Dawley male rats; conditions: rat
# Experimental: Two Sprague-Dawley male rats each weighing 250 to 300 grams, anesthetized using sodium pentobarbital (50 mg/Kg of body weight), were administered nasally by micropipet a dosage level of 15 mg/Kg of body weight of the following composition:
# 216 mg metoclopramide.HCL (MCP.HCL)
# 895.2 mg polyethylene glycol (PEG 400)
# The femoral artery was cannulated with heparinized polyethylene tubing (Clay Adams, PE-50) and blood samples were removed at the times indicated in Table 1.
# The samples were analyzed by high pressure liquid chromatography (HPLC) as follows:
# Column: Silica Column (4.6×250 mm)
# Mobile Phase: CH2 Cl2 : MeOH:NH4 OH=90:10:0.5
# Plasma (0.3 ml) was placed in a test tube and 0.1 ml of 1N NaOH was added. Four ml of methylene chloride was then added and the mixture shaken for 10 minutes on a reciprocal shaker, centrifuged for 3 minutes in an IEC clinical centrifuge and the upper layer removed by aspiration. A 3.0 ml aliquot of the methylene chloride layer was transferred to a second tube and evaporated to dryness with a streak of nitrogen gas. The resulting residue was then dissolved in 0.1 to 0.5 ml of mobile phase and submitted to HPLC analysis. […]
structure (smiles),measurement,setting,value
CC1(C)O[C@@H]2C[C@H]3[C@@H]4C[C@H](F)C5=CC(=O)C=C[C@]5(C)[C@H]4[C@@H](O)C[C@]3(C)[C@]2(C(=O)CO)O1 [flunisolide],topical antiinflammatory activity,[1],excellent topical antiinflammatory
same,absorption,[1]; nasal topical,not rapidly absorbed
same,systemic activity,[1]; nasal topical,minimal systemic activity
CCN(CC)CCNC(=O)c1cc(Cl)c(N)cc1OC [metoclopramide],benefit from treatment,[2]; five more cancer patients refractory to other antinausea treatments,All patients benefited from the treatment
same,control of nausea,"[2]; one patient, Stage IV ovarian cancer with bowel obstruction",contained their nausea between occasional bouts of vomiting
CN1CCCC1c1cccnc1 (centres unmarked) [nicotine],pressor response,[3]; injection of 1 mg,immediate and marked pressor response
same,pressor response,[3]; same or larger amounts into the sinus,little or no effect
same,pressor response,[4],little or no effect
CCN(CC)CCNC(=O)c1cc(Cl)c(N)cc1OC [metoclopramide hydrochloride],pharmacokinetic profiles,"[5]; 10 mg nasal, 10 mg P.O. and 5 mg I.M. compared",statistically identical
same,local toxicity,"[5]; during or after the study, 5 and 10 mg nasal, 10 mg P.O., 5 mg I.M.",No evidence of local toxicity
same,local or systemic toxicity,"[5]; extended study, 20 mg and 40 mg intranasal",no evidence of either local or systemic toxicity
same,Tmax,[5],1.34 h
same,Tmax,[5]; im,1.53 h
same,Tmax,[5]; po,1.62 h
same,maintenance of high levels,[6],maintained for a longer period of time
same,time to achieve maximum levels,[6],extended
same,Tmax,[6]; 15 mg/kg,0.25 h
same,Concentration,"[6]; 15 mg/kg, 0.25 h",1.61 ± 0.23 ug/ml plasma
same,Concentration,"[6]; 15 mg/kg, 0.5 h",1.55 ± 0.18 ug/ml plasma
same,Concentration,"[6]; 15 mg/kg, 0.75 h",1.30 ± 0.18 ug/ml plasma
same,Concentration,"[6]; 15 mg/kg, 1 h",1.26 ± 0.3 ug/ml plasma
same,Concentration,"[6]; 15 mg/kg, 1.25 h",1.62 ± 0.17 ug/ml plasma
same,Concentration,"[6]; 15 mg/kg, 1.5 h",1.63 ± 0.18 ug/ml plasma
same,Concentration,"[6]; 15 mg/kg, 2 h",1.55 ± 0.26 ug/ml plasma
same,Concentration,"[6]; 15 mg/kg, 4 h",1.29 ± 0.28 ug/ml plasma
same,concentration at 0.25 h,"[6]; 15 mg/kg, Concentration",850 ± 120 ng/mL
same,concentration at 0.5 h,"[6]; 15 mg/kg, Concentration",1370 ± 210 ng/mL
same,concentration at 0.75 h,"[6]; 15 mg/kg, Concentration",1510 ± 180 ng/mL
same,concentration at 1 h,"[6]; 15 mg/kg, Concentration",1610 ± 50 ng/mL
same,concentration at 1.25 h,"[6]; 15 mg/kg, Concentration",1110 ± 340 ng/mL
same,concentration at 1.5 h,"[6]; 15 mg/kg, Concentration",1040 ± 350 ng/mL
same,concentration at 2 h,"[6]; 15 mg/kg, Concentration",1100 ± 380 ng/mL
same,concentration at 2.5 h,"[6]; 15 mg/kg, Concentration",1550 ± 210 ng/mL
same,concentration at 3 h,"[6]; 15 mg/kg, Concentration",1090 ± 360 ng/mL
same,concentration at 4 h,"[6]; 15 mg/kg, Concentration",940 ng/mL
